Laboratory results taken from PubChem BioAssay (NCI).
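Exposure lasted 48 hours, with cells grown in 96-well plates and compounds tested at five concentrations. Here, GI50 denotes the concentration required for 50% inhibition of growth. TGI: total growth inhibition.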

What was measured:
Assay in all cases: growth of human tumour cells (NCI), 48 h
K-562 leukemia = tested on: K-562 leukemia
NCI/ADR-RES ovarian = tested on: NCI/ADR-RES ovarian
HCT-116 colon = tested on: HCT-116 colon
PC-3 prostate = tested on: PC-3 prostate
786-0 renal = tested on: 786-0 renal
NCI-H226 lung = tested on: NCI-H226 lung
OVCAR-3 ovarian = tested on: OVCAR-3 ovarian
SK-MEL-2 melanoma = tested on: SK-MEL-2 melanoma
M14 melanoma = tested on: M14 melanoma
A498 renal = tested on: A498 renal
HT29 colon = tested on: HT29 colon
SW-620 colon = tested on: SW-620 colon
A549 NSCLC = tested on: A549 NSCLC

Compound	TGI (K-562 leukemia)	TGI (NCI/ADR-RES ovarian)	TGI (HCT-116 colon)	TGI (PC-3 prostate)	TGI (786-0 renal)	TGI (NCI-H226 lung)	TGI (OVCAR-3 ovarian)	TGI (SK-MEL-2 melanoma)	TGI (M14 melanoma)	TGI (A498 renal)	TGI (HT29 colon)	TGI (SW-620 colon)	TGI (A549 NSCLC)	GI50 (PC-3 prostate)	GI50 (OVCAR-3 ovarian)	GI50 (SW-620 colon)
N#Cc1c(N2CCOCC2)[nH]c(=O)c(C(c2c(Cl)cccc2Cl)c2c(O)c(C#N)c(N3CCOCC3)[nH]c2=O)c1O	23.2 µM	> 100 µM	> 100 µM	37.7 µM	> 100 µM	37.5 µM	30.4 µM	39.5 µM	42.9 µM	> 100 µM	28.9 µM	36.8 µM	> 100 µM			
CCCC[C@H]1CCN2C[C@@H](O)[C@@H](O)[C@H]2[C@@H]1O	> 100 µM	> 100 µM	> 100 µM	> 100 µM	> 100 µM	> 100 µM	> 100 µM	> 100 µM	> 100 µM	> 100 µM	> 100 µM	> 100 µM	> 100 µM			
CCOC(=O)c1c(N2CCCC2)[nH]c(=O)c(C(c2cccs2)c2c(O)c(C(=O)OCC)c(N3CCCC3)[nH]c2=O)c1O	> 100 µM	> 100 µM	> 100 µM	> 100 µM	> 100 µM	> 100 µM	> 100 µM	> 100 µM	> 100 µM	> 100 µM	> 100 µM	> 100 µM	> 100 µM			
COc1ccc(CCNCCCC2c3ccccc3-c3ccccc32)cc1OC	49.2 µM	33.2 µM	25.8 µM	29.9 µM	28.9 µM	31.4 µM	31.2 µM	17.9 µM	11.8 µM	19.5 µM	16.1 µM	20.4 µM	31.4 µM			
S=C1N=C(Cl)/C(=C\c2ccccc2)N1	> 100 µM	> 100 µM	> 100 µM	> 100 µM	> 100 µM	> 100 µM	> 100 µM	> 100 µM	> 100 µM	> 100 µM	> 100 µM	> 100 µM	> 100 µM			
O=C1c2ccccc2C(=O)c2oc(Br)cc21	4.77 µM	5.44 µM	2.7 µM	11.1 µM	2.98 µM	3.22 µM	5.67 µM	1.73 µM	0.311 µM	3.49 µM	3.68 µM	1.09 µM	1.03 µM			
NC(=O)c1cccc([C@@H]2O[C@H](CO)[C@@H](O)[C@H]2O)c1	41.3 µM	16.3 µM	34.6 µM	> 100 µM	12.3 µM	75.7 µM	67.2 µM	> 100 µM	12.4 µM	> 100 µM	99 µM	42.8 µM	> 100 µM			
Cn1c2ccccc2c(=O)c2[nH]c3ccccc3c21	> 100 µM	> 100 µM	> 100 µM	> 100 µM	> 100 µM	> 100 µM	> 100 µM	> 100 µM	> 100 µM	> 100 µM	> 100 µM	> 100 µM	> 100 µM			
N#CC(C#N)=Cn1c(=S)[nH]c2ccccc21	> 100 µM	> 100 µM	> 100 µM	> 100 µM	> 100 µM	> 100 µM	> 100 µM	> 100 µM	> 100 µM	> 100 µM	> 100 µM	> 100 µM	> 100 µM			
CCc1n[nH]c(=O)n1CCO	> 100 µM	> 100 µM	> 100 µM	> 100 µM	> 100 µM	> 100 µM	> 100 µM	> 100 µM	> 100 µM	> 100 µM	> 100 µM	> 100 µM	> 100 µM			
C=CCn1c(-c2ccc(-c3cs/c(=N\N=O)n3CC=C)cc2)cs/c1=N\N=O	> 100 µM	> 100 µM	> 100 µM	> 100 µM	> 100 µM	> 100 µM	> 100 µM	> 100 µM	> 100 µM	> 100 µM	> 100 µM	> 100 µM	> 100 µM			
Cc1ccc2c(=O)cc(-c3sc4ccccc4c3C)[nH]c2n1	> 100 µM	47.6 µM	55.6 µM	> 100 µM	46.8 µM	81.3 µM	50.1 µM	> 100 µM	51 µM	> 100 µM	78.1 µM	65.8 µM	85.6 µM	33.4 µM	19.7 µM	19.8 µM
CC#CC(O)(C(=O)OC1CC2CCC(C1)N2C)C1CCCC1 (stereo not given)	> 100 µM	> 100 µM	> 100 µM	> 100 µM	> 100 µM	> 100 µM	> 100 µM	> 100 µM	> 100 µM	> 100 µM	> 100 µM	> 100 µM	> 100 µM			
CC1(C)[C@H]2Cc3cc(-c4cc5c(cn4)[C@@H]4C[C@H]([C@@H]5[C@@H]5c6cc(-c7cc8c(cn7)[C@@H]7C[C@H](C8)C7(C)C)ncc6[C@@H]6C[C@H]5C6(C)C)C4(C)C)ncc3[C@@H]1C2	> 100 µM	> 100 µM	> 100 µM	> 100 µM	> 100 µM	> 100 µM	> 100 µM	> 100 µM	> 100 µM	> 100 µM	> 100 µM	> 100 µM	> 100 µM			
CC(=O)c1cc(C)n2c1CS[C@@H]2c1ccccc1	> 100 µM	> 100 µM	> 100 µM	> 100 µM	50.5 µM	> 100 µM	> 100 µM	> 100 µM	> 100 µM	> 100 µM	> 100 µM	> 100 µM	> 100 µM			
COc1cc2c(cc1OC)C(=O)N(NC1=NCCN1)C2=O	> 100 µM	> 100 µM	> 100 µM	> 100 µM	> 100 µM	> 100 µM	> 100 µM	> 100 µM	> 100 µM	> 100 µM	> 100 µM	> 100 µM	> 100 µM			
CCOC(=O)C(=O)C(CCC(=O)c1ccc2ccccc2c1O)C(=O)OCC (stereo not given)	> 100 µM	> 100 µM	> 100 µM	> 100 µM	> 100 µM	> 100 µM	> 100 µM	> 100 µM	> 100 µM	> 100 µM	> 100 µM	> 100 µM	> 100 µM			
C/C=C/[C@H](O[Si](C)(C)C(C)(C)C)[C@@H](O)/C=C/C(=O)OCC	43.9 µM	76.8 µM	32.3 µM	> 100 µM	41.5 µM	83.7 µM	47.6 µM	82 µM		67.9 µM	39.2 µM	39.2 µM	> 100 µM			
O=c1[nH]n(Cc2ccccc2Cl)c2ccccc12	> 100 µM	> 100 µM	> 100 µM	> 100 µM	> 100 µM	> 100 µM	> 100 µM	> 100 µM	> 100 µM	> 100 µM	> 100 µM	> 100 µM	> 100 µM			
c1ccc(CC2(c3cc4ccccc4[nH]3)OCCO2)nc1	> 100 µM	> 100 µM	> 100 µM	> 100 µM	> 100 µM	> 100 µM	> 100 µM	> 100 µM	> 100 µM	> 100 µM	> 100 µM	> 100 µM	> 100 µM			
Cc1ncc([N+](=O)[O-])n1CCNC(=O)Cn1c([N+](=O)[O-])cnc1C	> 100 µM	> 100 µM	> 100 µM	> 100 µM	> 100 µM	> 100 µM	> 100 µM	> 100 µM	> 100 µM	> 100 µM	> 100 µM	> 100 µM	> 100 µM			
CC1(C)O[C@@H](CBr)C[C@H](C[C@H]2C[C@@H](O)C[C@@H](CCOCc3ccccc3)O2)O1	> 100 µM	41.1 µM	45.4 µM	39 µM	39.8 µM	35.5 µM	39.8 µM	32 µM	50.2 µM	48.6 µM		> 100 µM	75.7 µM			
COC(=O)c1c(-c2ccccc2)c2sc3ccccc3n2c1N	> 100 µM	> 100 µM	> 100 µM	> 100 µM	> 100 µM	> 100 µM	> 100 µM	70.7 µM	> 100 µM	91.1 µM	> 100 µM		> 100 µM			
CC(=O)c1sc(=N)n(-c2c(C)cccc2C)c1C	> 100 µM	> 100 µM		> 100 µM	> 100 µM	> 100 µM	> 100 µM	> 100 µM	> 100 µM	> 100 µM	> 100 µM	> 100 µM	> 100 µM			
CC1=NN=C(N)NC1=CC(Sc1ccc(Cl)cc1)c1c(O)ccc2ccccc12 (stereo not given)	> 100 µM	71.9 µM	> 63.2 µM	53.4 µM	> 65.6 µM	14 µM		23.2 µM	36.2 µM	37.5 µM	48.4 µM	> 100 µM	> 92.9 µM			
CCN(CC)CCO/N=C1/C=C2CCC3C(CC[C@@]4(C)C3CC[C@]4(C)O)[C@@]2(C)CC1 (stereo not given in full)	18.9 µM	7.48 µM	16.7 µM	88.1 µM	12.7 µM	10.2 µM	13.6 µM	36.6 µM	23.8 µM	0.878 µM	5.35 µM		45.9 µM			
